# Assay results reported in US20210253562A1, “ACYLSUFONAMIDE COMPOUNDS USEFUL AS EP3 RECEPTOR ANTAGONISTS” (Janssen Pharmaceutica NV, priority 2018, published 2021).
# Values joined by “and” are separate entries in the source; they are usually repeats but may differ in a detail not shown here. Equal values may be shown once.
# Target: T1, EP3 membrane (EP3 receptor) (Homo sapiens, UniProt P43115)
# T1 construct: purchased Millipore HTS092M
# T1 sequence (P43115 1-390): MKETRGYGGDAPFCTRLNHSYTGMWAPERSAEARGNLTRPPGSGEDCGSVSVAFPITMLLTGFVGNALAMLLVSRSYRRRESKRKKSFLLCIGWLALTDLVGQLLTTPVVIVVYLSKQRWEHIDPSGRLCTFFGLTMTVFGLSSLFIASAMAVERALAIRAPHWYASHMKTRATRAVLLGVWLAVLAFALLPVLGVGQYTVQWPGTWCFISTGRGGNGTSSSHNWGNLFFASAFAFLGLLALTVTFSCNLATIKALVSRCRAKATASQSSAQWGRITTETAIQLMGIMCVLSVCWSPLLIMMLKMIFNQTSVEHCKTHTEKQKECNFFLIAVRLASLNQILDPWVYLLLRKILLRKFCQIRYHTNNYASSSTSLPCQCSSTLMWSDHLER
# Assay: [3H]-PGE2 binding; EP3 competition binding (SPA)
# Procedure: Biological Example 1: [3H]-PGE2 Binding
# EP3 competition binding was determined using the following materials and experimental conditions: • Beads=Perkin Elmer RPNQ0001 • [3H]PGE2=Perkin Elmer NET428025UC • 384-well plate=Perkin Elmer 6007290 • EP3 membrane=Millipore HTS092M • Membrane concentration=2 μg/well • Beads concentration=0.25 mg/well • [3H]-PGE2=2 nM; DMSO—0.1% • Binding buffer=50 mM Tris, 10 mM MgCl2, 1 mM EDTA, PH 7.4.
# The reaction system was prepared by mixing 5 μl of unlabeled compound; 5 μl of diluted [3H]-PGE2; 5 μl of diluted membrane; and 15 μl of SPA beads dissolved in binding buffer (adding in the following sequence: Unlabeled compound, [3H]-PGE2, Membrane and Beads).
# The binding buffer was removed from refrigeration (@ 4° C.) and allowed to warm to room temperature. Test compound (@ stock concentration of […] in DMSO) was serial dilutes (1:3) with 100% DMSO using Echo plate. Diluted test compound (30 nL) was dispensed to the 384-well assay plate (using Echo 550 Labcyte System). To each well was then added assay buffer (5 μl) and each well was spun. Beads were weighed out, dissolved in assay buffer to a concentration of 0.25 mg/15 μl. Original membrane was diluted with assay buffer to a concentration of 2 μg/5 μl. Original [3H]-PGE2 with diluted with assay buffer to a concentration of 12 nM. To each test well were then added diluted [3H]-PGE2 (5 μl), diluted membrane (5 μl), and dissolved beads (15 μl). The plate was equilibrated at room temperature on a plate shaker for 2 hours and then read with a TOPCOUNT scintillation plate reader. Results were analyzed using a Prism program with non-linear regression, one-site fit for Ki.
row,Structure (SMILES),Ki
1,"Cc1cc(S(=O)(=O)NC(=O)NC/C(F)=C2\CCCc3cnn(Cc4ccc(Cl)cc4Cl)c32)sc1C [Compound #142, (Z)—N-((2-(1-(2,4-dichlorobenzyl)-1,4,5,6-tetrahydro-7H-indazol-7-ylidene)-2-fluoroethyl)carbamoyl)-4,5-dimethylthiophene-2-sulfonamide]",8 nM
2,"O=C(NC/C=C1\CCCc2cnn(C3CCN(Cc4ccccc4)CC3)c21)NS(=O)(=O)c1cc(Cl)c(Cl)s1 [Compound #148, (E)-N-((2-(1-(1-benzylpiperidin-4-yl)-1,4,5,6-tetrahydro-7H-indazol-7-ylidene)ethyl)carbamoyl)-4,5-dichlorothiophene-2-sulfonamide]",6 nM
3,"Cn1ccc(S(=O)(=O)NC(=O)NC/C=C2\CCCc3cnn(Cc4ccc(Cl)cc4Cl)c32)n1 [Compound #153, (E)-N-((2-(1-(2,4-dichlorobenzyl)-1,4,5,6-tetrahydro-7H-indazol-7-ylidene)ethyl)carbamoyl)-1-methyl-1H-pyrazole-3-sulfonamide]",22 nM
4,"O=C(NC/C(F)=C1\CCCc2cnn(C3CCN(c4ccc(F)cc4)CC3)c21)NS(=O)(=O)c1cc(Cl)c(Cl)s1 [Compound #154, (Z)-4,5-dichloro-N-((2-fluoro-2-(1-(1-(4-fluorophenyl)piperidin-4-yl)-1,4,5,6-tetrahydro-7H-indazol-7-ylidene)ethyl)carbamoyl)thiophene-2-sulfonamide]",13 nM
5,"O=C(NC/C(F)=C1\CCCc2cnn(CCc3ccc(C(F)(F)F)cc3)c21)NS(=O)(=O)c1cc(Cl)c(Cl)s1 [Compound #157, (Z)-4,5-dichloro-N-((2-fluoro-2-(1-(4-(trifluoromethyl)phenethyl)-1,4,5,6-tetrahydro-7H-indazol-7-ylidene)ethyl)carbamoyl)thiophene-2-sulfonamide]",467 nM
6,"Cc1nc(C)c(S(=O)(=O)NC(=O)NC/C(F)=C2\CCCc3cnn(Cc4ccc(Cl)cc4Cl)c32)s1 [Compound #158, (Z)—N-((2-(1-(2,4-Dichlorobenzyl)-1,4,5,6-tetrahydro-7H-indazol-7-ylidene)-2-fluoroethyl)carbamoyl)-2,4-dimethylthiazole-5-sulfonamide]",32 nM
7,"COc1ccc(S(=O)(=O)NC(=O)NC/C(F)=C2\CCCc3cnn(Cc4ccc(Cl)cc4Cl)c32)cc1F [Compound #159, (Z)—N-((2-(1-(2,4-Dichlorobenzyl)-1,4,5,6-tetrahydro-7H-indazol-7-ylidene)-2-fluoroethyl)carbamoyl)-3-fluoro-4-methoxybenzenesulfonamide]",22 nM
8,"Cc1nc(C)c(S(=O)(=O)NC(=O)NC/C(F)=C2\COCc3cnn(Cc4ccc(Cl)cc4Cl)c32)s1 [Compound #160, (E)-N-((2-(1-(2,4-dichlorobenzyl)-1,4-dihydropyrano[4,3-c]pyrazol-7(6H)-ylidene)-2-fluoroethyl)carbamoyl)-2,4-dimethylthiazole-5-sulfonamide]",217 nM
9,"O=C(NC/C=C1\CCCc2cnn(Cc3ncc(-c4ccccc4)cn3)c21)NS(=O)(=O)c1cc(Cl)c(Cl)s1 [Compound #163, (E)-4,5-dichloro-N-((2-(1-((5-phenylpyrimidin-2-yl)methyl)-1,4,5,6-tetrahydro-7H-indazol-7-ylidene)ethyl)carbamoyl)thiophene-2-sulfonamide]",> 10000 nM
10,"O=C(NC/C(F)=C1\CCCn2nnc(-c3ccc(C(F)(F)F)cc3)c21)NS(=O)(=O)c1cc(Cl)c(Cl)s1 [Compound #164, (Z)-4,5-dichloro-N-((2-fluoro-2-(3-(4-(trifluoromethyl)phenyl)-6,7-dihydro-[1,2,3]triazolo[1,5-a]pyridin-4(5H)-ylidene)ethyl)carbamoyl)thiophene-2-sulfonamide]",3200 nM
11,"COc1ccc(S(=O)(=O)NC(=O)NC/C(F)=C2\COCc3cnn(Cc4ccc(Cl)cc4Cl)c32)cc1Cl [Compound #165, (E)-3-chloro-N-((2-(1-(2,4-dichlorobenzyl)-1,4-dihydropyrano[4,3-c]pyrazol-7(6H)-ylidene)-2-fluoroethyl)carbamoyl)-4-methoxybenzenesulfonamide]",10 nM
12,"Cc1cc(S(=O)(=O)NC(=O)NC/C(F)=C2\COCc3cnn(Cc4ccc(Cl)cc4Cl)c32)sc1Cl [Compound #166, (E)-5-chloro-N-((2-(1-(2,4-dichlorobenzyl)-1,4-dihydropyrano[4,3-c]pyrazol-7(6H)-ylidene)-2-fluoroethyl)carbamoyl)-4-methylthiophene-2-sulfonamide]",6 nM and 7 nM
13,"Cc1cc(Cl)ccc1Cc1nnn2c1/C(=C(\F)CNC(=O)NS(=O)(=O)c1cc(Cl)c(Cl)s1)CCC2 [Compound #167, (Z)-4,5-dichloro-N-((2-(3-(4-chloro-2-methylbenzyl)-6,7-dihydro-[1,2,3]triazolo[1,5-a]pyridin-4(5H)-ylidene)-2-fluoroethyl)carbamoyl)thiophene-2-sulfonamide]",7 nM
14,"Cn1nccc1S(=O)(=O)NC(=O)NC/C(F)=C1\CCCc2cnn(Cc3ccc(Cl)cc3Cl)c21 [Compound #168, (Z)—N-((2-(1-(2,4-dichlorobenzyl)-1,4,5,6-tetrahydro-7H-indazol-7-ylidene)-2-fluoroethyl)carbamoyl)-1-methyl-1H-pyrazole-5-sulfonamide]",232 nM
15,"Cn1nccc1S(=O)(=O)NC(=O)NC/C=C1\CCCc2cnn(Cc3ccc(Cl)cc3Cl)c21 [Compound #171, (E)-N-((2-(1-(2,4-dichlorobenzyl)-1,4,5,6-tetrahydro-7H-indazol-7-ylidene)ethyl)carbamoyl)-1-methyl-1H-pyrazole-5-sulfonamide]",18 nM

# The remaining lines, values ahead:
row,Ki,Structure (SMILES)
1,62 nM,"O=C(NC/C(F)=C1\COCc2cnn(C3CCN(c4ccc(F)cc4)CC3)c21)NS(=O)(=O)c1cc(Cl)c(Cl)s1 [Compound #144, (E)-4,5-dichloro-N-((2-fluoro-2-(1-(1-(4-fluorophenyl)piperidin-4-yl)-1,4-dihydropyrano[4,3-c]pyrazol-7(6H)-ylidene)ethyl)carbamoyl)thiophene-2-sulfonamide]"
2,6 nM,"O=C(NC/C(F)=C1\COCc2onc(Cc3ccc(Cl)cc3Cl)c21)NS(=O)(=O)c1cc(Cl)c(Cl)s1 [Compound #145, (E)-4,5-dichloro-N-((2-(3-(2,4-dichlorobenzyl)-5H-pyrano[4,3-d]isoxazol-4(7H)-ylidene)-2-fluoroethyl)carbamoyl)thiophene-2-sulfonamide]"
3,22 nM,"COCn1nc(Cc2ccc(Cl)cc2Cl)c2c1COC/C2=C(/F)CNC(=O)NS(=O)(=O)c1cc(Cl)c(Cl)s1 [Compound #146, (E)-4,5-dichloro-N-((2-(3-(2,4-dichlorobenzyl)-1-(methoxymethyl)-1,7-dihydropyrano[3,4-c]pyrazol-4(5H)-ylidene)-2-fluoroethyl)carbamoyl)thiophene-2-sulfonamide]"
4,102 nM,"CN1CCC(n2ncc3c2/C(=C/CNC(=O)NS(=O)(=O)c2cc(Cl)c(Cl)s2)CCC3)CC1 [Compound #151, (E)-4,5-dichloro-N-((2-(1-(1-methylpiperidin-4-yl)-1,4,5,6-tetrahydro-7H-indazol-7-ylidene)ethyl)carbamoyl)thiophene-2-sulfonamide]"
5,57 nM,"COc1ccc(S(=O)(=O)NC(=O)NC/C(F)=C2\COCc3cnn(Cc4ccc(Cl)cc4Cl)c32)cc1F [Compound #161, (E)-N-((2-(1-(2,4-dichlorobenzyl)-1,4-dihydropyrano[4,3-c]pyrazol-7(6H)-ylidene)-2-fluoroethyl)carbamoyl)-3-fluoro-4-methoxybenzenesulfonamide]"
6,83 nM,"Cc1c(S(=O)(=O)NC(=O)NC/C(F)=C2\CCCc3cnn(Cc4ccc(Cl)cc4Cl)c32)cnn1C [Compound #169, (Z)—N-((2-(1-(2,4-dichlorobenzyl)-1,4,5,6-tetrahydro-7H-indazol-7-ylidene)-2-fluoroethyl)carbamoyl)-1,5-dimethyl-1H-pyrazole-4-sulfonamide]"
7,612 nM,"CC(C)n1cc(S(=O)(=O)NC(=O)NC/C(F)=C2\CCCc3cnn(Cc4ccc(Cl)cc4Cl)c32)cn1 [Compound #170, (Z)—N-((2-(1-(2,4-dichlorobenzyl)-1,4,5,6-tetrahydro-7H-indazol-7-ylidene)-2-fluoroethyl)carbamoyl)-1-isopropyl-1H-pyrazole-4-sulfonamide]"
8,4 nM,"Cc1c(S(=O)(=O)NC(=O)NC/C=C2\CCCc3cnn(Cc4ccc(Cl)cc4Cl)c32)cnn1C [Compound #172, (E)-N-((2-(1-(2,4-dichlorobenzyl)-1,4,5,6-tetrahydro-7H-indazol-7-ylidene)ethyl)carbamoyl)-1,5-dimethyl-1H-pyrazole-4-sulfonamide]"
